Molecules are shown by their SMILES.

Chain of human GPR43 (O15552 whole entry): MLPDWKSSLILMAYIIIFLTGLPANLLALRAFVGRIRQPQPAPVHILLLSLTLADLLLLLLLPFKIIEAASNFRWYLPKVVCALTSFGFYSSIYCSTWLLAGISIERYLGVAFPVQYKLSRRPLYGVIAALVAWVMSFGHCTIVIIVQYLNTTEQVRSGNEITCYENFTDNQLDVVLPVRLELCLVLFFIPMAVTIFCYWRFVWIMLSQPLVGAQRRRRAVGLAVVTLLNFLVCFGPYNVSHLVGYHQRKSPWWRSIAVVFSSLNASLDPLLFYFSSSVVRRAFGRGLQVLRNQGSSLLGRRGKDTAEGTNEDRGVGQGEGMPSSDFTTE

In the test the target is human GPR43 (Homo sapiens (Human), UniProt O15552). In words: Ca-Flux functional assay: determination of agonist/positive allosteric modulator (PAM) activity. In kind it is cell-based. To be noted: CHO-K1 Gα16 cells stably expressing human GPR43; compound added with EC20 sodium acetate; intracellular Ca2+ by FLIPR; does not distinguish agonist from PAM. The gist of the method:
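CHO-K1 Gα16 cells stably expressing human GPR43, loaded with Calcium 5 dye 1 h; compounds (10-point half-log from 10 μM) added with sodium acetate at EC20. FLIPR calcium signal gave EC50, two wells per point; agonists and PAMs not distinguished.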
By EC50 is commonly meant the concentration at which the effect is half-maximal. Consider `Nc1[nH]c2c(N3CCO[C@@H](c4ccccc4)C3)ncnc2c1S(=O)(=O)c1ccccc1` [Example 134, 7-(benzenesulfonyl)-4-[(2S)-2-phenylmorpholin-4-yl]-5H-pyrrolo[3,2-d]pyrimidin-6-amine], for which the EC50 stood at 93 nM. `Nc1[nH]c2c(C3=CCCCC3)ncnc2c1Sc1ccccc1` [Example 135, 4-(cyclohex-1-en-1-yl)-7-(phenylsulfanyl)-5H-pyrrolo[3,2-d]pyrimidin-6-amine] gave an EC50 of 235 nM.

As to `CC1CN(c2ncnc3c(S(=O)(=O)c4ccc(C(F)(F)F)cc4)c(N)[nH]c23)CCO1` (stereo not drawn) [Example 136, 4-(2-methylmorpholin-4-yl)-7-[4-(trifluoromethyl)benzenesulfonyl]-5H-pyrrolo[3,2-d]pyrimidin-6-amine], the EC50 worked out at 118 nM. In the case of `C[C@@H]1CN(c2ncnc3c(S(=O)(=O)c4ccccc4)c(N)[nH]c23)CCO1` [Example 137, 7-(benzenesulfonyl)-4-[(2R)-2-methylmorpholin-4-yl]-5H-pyrrolo[3,2-d]pyrimidin-6-amine] it was 52 nM. `Cc1nc(N2C[C@@H](C)O[C@@H](C)C2)c2[nH]c(N)c(S(=O)(=O)c3ccccc3)c2n1` [Example 138, 7-(benzenesulfonyl)-4-[(2R,6S)-2,6-dimethylmorpholin-4-yl]-2-methyl-5H-pyrrolo[3,2-d]pyrimidin-6-amine] registered an EC50 of 6 nM. Against the preceding molecule, the EC50 is about 8.7-fold lower.

Take `Cc1nc(N2CCOC(C)(C)C2)c2[nH]c(N)c(S(=O)(=O)c3ccccc3)c2n1` [Example 139, 7-(benzenesulfonyl)-4-(2,2-dimethylmorpholin-4-yl)-2-methyl-5H-pyrrolo[3,2-d]pyrimidin-6-amine]: the half-maximal effective concentration (EC50) came to 13 nM. In the case of `Cc1cc(C)n(-c2ncnc3c(S(=O)(=O)c4ccccc4)c(N)[nH]c23)n1` [Example 140, 7-(benzenesulfonyl)-4-(3,5-dimethyl-1H-pyrazol-1-yl)-5H-pyrrolo[3,2-d]pyrimidin-6-amine] it was 72 nM; in that of `Nc1[nH]c2c(N3CCOC(C(F)(F)F)C3)ncnc2c1S(=O)(=O)c1ccccc1` (stereo not drawn) [Example 141, 7-(benzenesulfonyl)-4-[2-(trifluoromethyl)morpholin-4-yl]-5H-pyrrolo[3,2-d]pyrimidin-6-amine], 12 nM; in that of `Cc1nc(N2CCC(F)(F)CC2)c2[nH]c(N)c(S(=O)(=O)c3ccccc3)c2n1` [Example 142, 7-(benzenesulfonyl)-4-(4,4-difluoropiperidin-1-yl)-2-methyl-5H-pyrrolo[3,2-d]pyrimidin-6-amine], 20 nM. `CC1CN(c2ncnc3c(S(=O)(=O)c4ccc(Cl)c(F)c4)c(N)[nH]c23)CCO1` (stereo not drawn) [Example 143, 7-(4-chloro-3-fluorobenzenesulfonyl)-4-(2-methylmorpholin-4-yl)-5H-pyrrolo[3,2-d]pyrimidin-6-amine] had an EC50 of 35 nM. Turning to `Cc1ccc(S(=O)(=O)c2c(N)[nH]c3c(N4CCOC(C)C4)ncnc23)c(F)c1` (stereo not drawn) [Example 146, 7-(2-fluoro-4-methylbenzenesulfonyl)-4-(2-methylmorpholin-4-yl)-5H-pyrrolo[3,2-d]pyrimidin-6-amine], the response was half-maximal at 9 nM (EC50).

The molecule `CC1CN(c2ncnc3c(S(=O)(=O)c4cc(F)cc(F)c4)c(N)[nH]c23)CCO1` (stereo not drawn) [Example 147, 7-(3,5-difluorobenzenesulfonyl)-4-(2-methylmorpholin-4-yl)-5H-pyrrolo[3,2-d]pyrimidin-6-amine] displayed an EC50 of 88 nM. `Cc1cccc(-c2nc(C)nc3c(S(=O)(=O)c4ccccc4)c(N)[nH]c23)c1` [Example 148, 7-(benzenesulfonyl)-2-methyl-4-(3-methylphenyl)-5H-pyrrolo[3,2-d]pyrimidin-6-amine]: the concentration giving a half-maximal response (EC50) amounted to 14 nM. In the case of `C=C(C)c1nc(C)nc2c(S(=O)(=O)c3ccccc3)c(N)[nH]c12` [Example 149, 7-(benzenesulfonyl)-2-methyl-4-(prop-1-en-2-yl)-5H-pyrrolo[3,2-d]pyrimidin-6-amine] it was 252 nM; in that of `Nc1[nH]c2c(N3CCCC4(COC4)C3)ncnc2c1S(=O)(=O)c1ccccc1` [Example 150, 7-(benzenesulfonyl)-4-{2-oxa-6-azaspiro[3.5]nonan-6-yl}-5H-pyrrolo[3,2-d]pyrimidin-6-amine], 933 nM; in that of `Nc1[nH]c2c(N3CCOC4(CC4)C3)ncnc2c1S(=O)(=O)c1ccccc1` [Example 151, 7-(benzenesulfonyl)-4-{4-oxa-7-azaspiro[2.5]octan-7-yl}-5H-pyrrolo[3,2-d]pyrimidin-6-amine], 23 nM. `COc1ccccc1S(=O)(=O)c1c(N)[nH]c2c(N3CCOC(C)C3)ncnc12` (stereo not drawn) [Example 152, 7-(2-methoxybenzenesulfonyl)-4-(2-methylmorpholin-4-yl)-5H-pyrrolo[3,2-d]pyrimidin-6-amine] returned an EC50 of 2150 nM. This EC50 lies about 93-fold higher than the previous one. With `CC1CN(c2ncnc3c(S(=O)(=O)CCc4ccccc4)c(N)[nH]c23)CCO1` (stereo not drawn) [Example 153, 4-(2-methylmorpholin-4-yl)-7-(2-phenylethanesulfonyl)-5H-pyrrolo[3,2-d]pyrimidin-6-amine], a half-maximal effect (EC50) was put at 814 nM. This EC50 lies about 2.6-fold lower than the previous one. In the case of `COc1cccc(S(=O)(=O)c2c(N)[nH]c3c(N4CCOC(C)C4)ncnc23)c1` (stereo not drawn) [Example 154, 7-(3-methoxybenzenesulfonyl)-4-(2-methylmorpholin-4-yl)-5H-pyrrolo[3,2-d]pyrimidin-6-amine] it was 47 nM. In the case of `Nc1[nH]c2c(C3CCC(F)(F)CC3)ncnc2c1S(=O)(=O)c1ccccc1` [Example 155, 7-(benzenesulfonyl)-4-(4,4-difluorocyclohexyl)-5H-pyrrolo[3,2-d]pyrimidin-6-amine] it was 330 nM; in that of `Nc1[nH]c2c(OCC3CCCCO3)ncnc2c1S(=O)(=O)c1ccccc1` (stereo not drawn) [Example 156, 7-(benzenesulfonyl)-4-(oxan-2-ylmethoxy)-5H-pyrrolo[3,2-d]pyrimidin-6-amine], 3000 nM. Consider `Nc1[nH]c2c(OCC3CCCOC3)ncnc2c1S(=O)(=O)c1ccccc1` (stereo not drawn) [Example 157, 7-(benzenesulfonyl)-4-(oxan-3-ylmethoxy)-5H-pyrrolo[3,2-d]pyrimidin-6-amine], for which a half-maximal response (EC50) required 1580 nM. Take `Nc1[nH]c2c(O[C@H]3CCOC3)ncnc2c1S(=O)(=O)c1ccccc1` [Example 158, 7-(benzenesulfonyl)-4-[(3S)-oxolan-3-yloxy]-5H-pyrrolo[3,2-d]pyrimidin-6-amine]: the EC50 stood at 3070 nM. In the case of `Nc1[nH]c2c(O[C@@H]3CCOC3)ncnc2c1S(=O)(=O)c1ccccc1` [Example 159, 7-(benzenesulfonyl)-4-[(3R)-oxolan-3-yloxy]-5H-pyrrolo[3,2-d]pyrimidin-6-amine] it was 5250 nM; in that of `Nc1[nH]c2c(OC3CCCCC3)ncnc2c1S(=O)(=O)c1ccccc1` [Example 160, 7-(benzenesulfonyl)-4-(cyclohexyloxy)-5H-pyrrolo[3,2-d]pyrimidin-6-amine], 39 nM; in that of `Cc1csc(COc2ncnc3c(S(=O)(=O)c4ccccc4)c(N)[nH]c23)n1` [Example 161, 7-(benzenesulfonyl)-4-[(4-methyl-1,3-thiazol-2-yl)methoxy]-5H-pyrrolo[3,2-d]pyrimidin-6-amine], 1400 nM. In the case of `C[C@@H](Oc1ncnc2c(S(=O)(=O)c3ccccc3)c(N)[nH]c12)c1ccccn1` [Example 162, 7-(benzenesulfonyl)-4-[(1R)-1-(pyridin-2-yl)ethoxy]-5H-pyrrolo[3,2-d]pyrimidin-6-amine] it was 141 nM.

The record behind these values is patent publication US10059713B2 (Takeda Pharmaceutical Company Limited, priority 2014, dated 2018).
